Data from patent US20240293563A1, “GLP-1 RECEPTOR LIGAND MOIETY CONJUGATED OLIGONUCLEOTIDES AND USES THEREOF” (priority 2017, published 2024).
Square brackets hold non-standard residues; d marks the D form. Side chains are listed from the residue outwards. Ends that are not written are not given here. 5'‑hexylamino oligonucleotide ISIS 786434 = not defined here; Aib = CC(C)(N)C(=O)O; Mpa = O=C(O)CCS

Columns and labels:
MALAT1 = experiment: In situ hybridization of MALAT1 (QuantiGene ViewRNA) in mouse tissues after intravenous ASO; assay type: in vivo
Source text: NO: 63) or a GLP-1 conjugated MALAT1 ASO (ISIS 816385) described in Example 1 at concentrations of 1.8. 0.6, or 0.2 μmol/kg. […] MALAT1 expression was detected using the QuantiGene ViewRNA tissue assay (Affymetrix, cat. No. QVT0011). Species-specific MALAT1 probes were purchased from Affymetrix (cat. No. VB-11110-01/mouse; VF1-13963/monkey). In brief, mouse tissues were fixed in 10% neutral-buffered formalin and embedded into paraffin and sectioned into […]. After deparaffinization, the tissue slides were boiled in Affymetrix pretreatment solution for 10-30 minutes followed by treatment with protease at 40° C. for 10 to 40 minutes depending on tissue. The MALAT1 RNA probe was used at a 1:40 dilution and was incubated with sample at 40° C. for 120 minutes. After washing, the MALAT1 RNA/probe complex was hybridized with preamplifier, amplifier, and AP-oligonucleotides at 40° C. for 25, 15, and 15 minutes, respectively. After removal of free AP oligonucleotide by washing in PBS, the slide was incubated with Fast Red substrate at room temperature for 30 minutes. The tissue images were acquired using an Aperio scanner. Hung et al., 2013 Nuc Acid Ther. 369-78. To determine a dose response of a GLP-1 conjugated MALAT1 ASO (ISIS 816385) described in Example 1 on pancreatic MALAT1 expression, male C57BL/6 mice fed a chow diet received a single intravenous injection of ISIS 816385 or an unconjugated MALAT1 ASO (ISIS 556089) described above at concentrations of 0.2, 0.06, and 0.02 μmol/kg. MALAT1 expression was detected using the QuantiGene ViewRNA tissue assay described above.

[1] = Food intake of mice after single subcutaneous injection of GLP-1 conjugated ASO; assay type: in vivo, mouse
Protocol: Groups of eight mice were administered a single subcutaneous injection of 0.01, 0.03, or 0.1 μmol/kg of ION 816385 (GLP-1 conjugated MALAT-1 ASO conjugated via a disulfide linker) or 0.1 μmol/kg ION 1123118 (GLP-1 conjugated MALAT-1 ASO conjugated via a maleimide acid linker), as indicated in the table below, and food intake was measured for 24 hours. Food intake of eight mice administered a subcutaneous injection of PBS was monitored as a control.

MALAT1 mRNA = experiment: Dose dependent antisense inhibition of MALAT1 in WT HEK293 cells; assay type: cell-based, human; conditions: approximately 24 hrs, qRT-PCR normalized to RPLP0

Q: Which “effect in liver (MALAT1 in situ hybridization)” value (MALAT1; Study 2, single intravenous injection, any of the doses 0.2, 0.06, 0.02 μmol/kg) does the source give for “ISIS 816385 (H[Aib]EGTFTSDVSSYLEEQAAKEFIAWLVKGGPSSGAPPPSC([Mpa-5'‑hexylamino oligonucleotide ISIS 786434])-NH2; reading uncertain; also: Cys40 joined to the linker by a disulfide)” here?
A: No observable effect

Q: What about the “MALAT1 staining in beta islet cells of the pancreas (in situ hybridization)” value (MALAT1; Study 2, single intravenous injection, at the 0.2 μmol/kg dose and 0.06 μmol/kg dose) of the same substance?
A: reduced MALAT1 staining

Q: What about the “MALAT1 expression in pancreatic beta islet cells (in situ hybridization)” value (MALAT1; male C57BL/6 mice, 2 intravenous injections of 1.8, 0.6 or 0.2 μmol/kg, 72 hours after final injection) of the same substance?
A: reduced MALAT1 expression

Q: And the “Cumulative Food Intake” value ([1]; 0.01 μmol/kg single s.c., Time 1 h)?
A: 0.10 g

Q: What about the “Cumulative Food Intake” value ([1]; 0.01 μmol/kg single s.c., Time 2 h) of the same substance?
A: 0.25 g

Q: And the “Cumulative Food Intake” value ([1]; 0.01 μmol/kg single s.c., Time 3 h)?
A: 0.40 g

Q: What about the “Cumulative Food Intake” value ([1]; 0.01 μmol/kg single s.c., Time 4 h) of the same substance?
A: 0.56 g

Q: What about the “Cumulative Food Intake” value ([1]; 0.01 μmol/kg single s.c., Time 5 h) of the same substance?
A: 0.71 g

Q: What about the “Cumulative Food Intake” value ([1]; 0.01 μmol/kg single s.c., Time 6 h) of the same substance?
A: 0.86 g

Q: What about the “Cumulative Food Intake” value ([1]; 0.01 μmol/kg single s.c., Time 7 h) of the same substance?
A: 1.09 g

Q: What about the “Cumulative Food Intake” value ([1]; 0.01 μmol/kg single s.c., Time 8 h) of the same substance?
A: 1.23 g

Q: And the “Cumulative Food Intake” value ([1]; 0.01 μmol/kg single s.c., Time 9 h)?
A: 1.34 g

Q: And the “Cumulative Food Intake” value ([1]; 0.01 μmol/kg single s.c., Time 10 h)?
A: 1.47 g

Q: And the “Cumulative Food Intake” value ([1]; 0.01 μmol/kg single s.c., Time 11 h)?
A: 1.61 g

Q: And the “Cumulative Food Intake” value ([1]; 0.01 μmol/kg single s.c., Time 12 h)?
A: 1.81 g

Q: What about the “Cumulative Food Intake” value ([1]; 0.01 μmol/kg single s.c., Time 13 h) of the same substance?
A: 1.97 g

Q: What about the “Cumulative Food Intake” value ([1]; 0.01 μmol/kg single s.c., Time 14 h) of the same substance?
A: 2.22 g

Q: And the “Cumulative Food Intake” value ([1]; 0.01 μmol/kg single s.c., Time 15 h)?
A: 2.26 g

Q: What about the “Cumulative Food Intake” value ([1]; 0.01 μmol/kg single s.c., Time 16 h) of the same substance?
A: 2.31 g

Q: What about the “Cumulative Food Intake” value ([1]; 0.01 μmol/kg single s.c., Time 17 h) of the same substance?
A: 2.57 g

Q: And the “Cumulative Food Intake” value ([1]; 0.01 μmol/kg single s.c., Time 18 h)?
A: 2.57 g

Q: What about the “Cumulative Food Intake” value ([1]; 0.01 μmol/kg single s.c., Time 19 h) of the same substance?
A: 2.58 g

Q: And the “Cumulative Food Intake” value ([1]; 0.01 μmol/kg single s.c., Time 20 h)?
A: 2.64 g

Q: And the “Cumulative Food Intake” value ([1]; 0.01 μmol/kg single s.c., Time 21 h)?
A: 2.64 g

Q: And the “Cumulative Food Intake” value ([1]; 0.01 μmol/kg single s.c., Time 22 h)?
A: 2.69 g

Q: And the “Cumulative Food Intake” value ([1]; 0.01 μmol/kg single s.c., Time 23 h)?
A: 2.69 g

Q: And the “Cumulative Food Intake” value ([1]; 0.01 μmol/kg single s.c., Time 24 h)?
A: 2.69 g

Q: What about the “Cumulative Food Intake” value ([1]; 0.03 μmol/kg single s.c., Time 1 h) of the same substance?
A: 0.15 g

Q: And the “Cumulative Food Intake” value ([1]; 0.03 μmol/kg single s.c., Time 2 h)?
A: 0.21 g

Q: And the “Cumulative Food Intake” value ([1]; 0.03 μmol/kg single s.c., Time 3 h)?
A: 0.26 g

Q: What about the “Cumulative Food Intake” value ([1]; 0.03 μmol/kg single s.c., Time 4 h) of the same substance?
A: 0.31 g

Q: What about the “Cumulative Food Intake” value ([1]; 0.03 μmol/kg single s.c., Time 5 h) of the same substance?
A: 0.38 g

Q: What about the “Cumulative Food Intake” value ([1]; 0.03 μmol/kg single s.c., Time 6 h) of the same substance?
A: 0.48 g

Q: What about the “Cumulative Food Intake” value ([1]; 0.03 μmol/kg single s.c., Time 7 h) of the same substance?
A: 0.53 g

Q: And the “Cumulative Food Intake” value ([1]; 0.03 μmol/kg single s.c., Time 8 h)?
A: 0.55 g

Q: What about the “Cumulative Food Intake” value ([1]; 0.03 μmol/kg single s.c., Time 9 h) of the same substance?
A: 0.66 g

Q: What about the “Cumulative Food Intake” value ([1]; 0.03 μmol/kg single s.c., Time 10 h) of the same substance?
A: 0.73 g

Q: What about the “Cumulative Food Intake” value ([1]; 0.03 μmol/kg single s.c., Time 11 h) of the same substance?
A: 0.79 g

Q: What about the “Cumulative Food Intake” value ([1]; 0.03 μmol/kg single s.c., Time 12 h) of the same substance?
A: 0.89 g

Q: And the “Cumulative Food Intake” value ([1]; 0.03 μmol/kg single s.c., Time 13 h)?
A: 0.99 g

Q: What about the “Cumulative Food Intake” value ([1]; 0.03 μmol/kg single s.c., Time 14 h) of the same substance?
A: 1.07 g

Q: And the “Cumulative Food Intake” value ([1]; 0.03 μmol/kg single s.c., Time 15 h)?
A: 1.09 g

Q: And the “Cumulative Food Intake” value ([1]; 0.03 μmol/kg single s.c., Time 16 h)?
A: 1.22 g

Q: And the “Cumulative Food Intake” value ([1]; 0.03 μmol/kg single s.c., Time 17 h)?
A: 1.23 g

Q: What about the “Cumulative Food Intake” value ([1]; 0.03 μmol/kg single s.c., Time 18 h) of the same substance?
A: 1.26 g

Q: What about the “Cumulative Food Intake” value ([1]; 0.03 μmol/kg single s.c., Time 19 h) of the same substance?
A: 1.29 g

Q: What about the “Cumulative Food Intake” value ([1]; 0.03 μmol/kg single s.c., Time 20 h) of the same substance?
A: 1.33 g

Q: What about the “Cumulative Food Intake” value ([1]; 0.03 μmol/kg single s.c., Time 21 h) of the same substance?
A: 1.39 g

Q: What about the “Cumulative Food Intake” value ([1]; 0.03 μmol/kg single s.c., Time 22 h) of the same substance?
A: 1.39 g

Q: And the “Cumulative Food Intake” value ([1]; 0.03 μmol/kg single s.c., Time 23 h)?
A: 1.39 g

Q: What about the “Cumulative Food Intake” value ([1]; 0.03 μmol/kg single s.c., Time 24 h) of the same substance?
A: 1.39 g

Q: What about the “Cumulative Food Intake” value ([1]; 0.1 μmol/kg single s.c., Time 1 h) of the same substance?
A: 0.06 g

Q: What about the “Cumulative Food Intake” value ([1]; 0.1 μmol/kg single s.c., Time 2 h) of the same substance?
A: 0.12 g

Q: What about the “Cumulative Food Intake” value ([1]; 0.1 μmol/kg single s.c., Time 3 h) of the same substance?
A: 0.17 g

Q: And the “Cumulative Food Intake” value ([1]; 0.1 μmol/kg single s.c., Time 4 h)?
A: 0.20 g

Q: And the “Cumulative Food Intake” value ([1]; 0.1 μmol/kg single s.c., Time 5 h)?
A: 0.26 g

Q: What about the “Cumulative Food Intake” value ([1]; 0.1 μmol/kg single s.c., Time 6 h) of the same substance?
A: 0.28 g

Q: And the “Cumulative Food Intake” value ([1]; 0.1 μmol/kg single s.c., Time 7 h)?
A: 0.31 g

Q: And the “Cumulative Food Intake” value ([1]; 0.1 μmol/kg single s.c., Time 8 h)?
A: 0.37 g

Q: What about the “Cumulative Food Intake” value ([1]; 0.1 μmol/kg single s.c., Time 9 h) of the same substance?
A: 0.39 g

Q: What about the “Cumulative Food Intake” value ([1]; 0.1 μmol/kg single s.c., Time 10 h) of the same substance?
A: 0.44 g

Q: And the “Cumulative Food Intake” value ([1]; 0.1 μmol/kg single s.c., Time 11 h)?
A: 0.49 g

Q: What about the “Cumulative Food Intake” value ([1]; 0.1 μmol/kg single s.c., Time 12 h) of the same substance?
A: 0.50 g

Q: What about the “Cumulative Food Intake” value ([1]; 0.1 μmol/kg single s.c., Time 13 h) of the same substance?
A: 0.58 g

Q: And the “Cumulative Food Intake” value ([1]; 0.1 μmol/kg single s.c., Time 14 h)?
A: 0.62 g

Q: And the “Cumulative Food Intake” value ([1]; 0.1 μmol/kg single s.c., Time 15 h)?
A: 0.67 g

Q: What about the “Cumulative Food Intake” value ([1]; 0.1 μmol/kg single s.c., Time 16 h) of the same substance?
A: 0.75 g

Q: What about the “Cumulative Food Intake” value ([1]; 0.1 μmol/kg single s.c., Time 17 h) of the same substance?
A: 0.76 g

Q: What about the “Cumulative Food Intake” value ([1]; 0.1 μmol/kg single s.c., Time 18 h) of the same substance?
A: 0.83 g

Q: What about the “Cumulative Food Intake” value ([1]; 0.1 μmol/kg single s.c., Time 19 h) of the same substance?
A: 0.89 g

Q: And the “Cumulative Food Intake” value ([1]; 0.1 μmol/kg single s.c., Time 20 h)?
A: 0.90 g

Q: What about the “Cumulative Food Intake” value ([1]; 0.1 μmol/kg single s.c., Time 21 h) of the same substance?
A: 0.91 g

Q: And the “Cumulative Food Intake” value ([1]; 0.1 μmol/kg single s.c., Time 22 h)?
A: 0.93 g

Q: What about the “Cumulative Food Intake” value ([1]; 0.1 μmol/kg single s.c., Time 23 h) of the same substance?
A: 0.93 g

Q: What about the “Cumulative Food Intake” value ([1]; 0.1 μmol/kg single s.c., Time 24 h) of the same substance?
A: 0.94 g

Q: And the IC50 (MALAT1 mRNA)?
A: 2.21 µM
